Test results: PubChem BioAssay AID1963850 (Molecular Pharmacology Branch, DTP, NCI, 2024)

Tested on: 192522-019-R-J2-PDC complex tumor spheroid viability
Test: Anticancer human tumor 192522-019-R-J2-PDC patient-derived colon adenocarcinoma cell line growth inhibition [POLQ]
Settings: for IC50: curve of first compound; for viability, T/C: stronger effect = lower value
Procedure: Multicellular complex tumor spheroid response to Polymerase (POL) inhibitors (novobiocin, ART-558, RP6685) in combination with a variety of drugs and investigational agents in selected tumor cell lines
The POL inhibitors (novobiocin, ART-558, and RP6685) were evaluated both individually and in combination with standard of care and investigational anticancer small molecules within a complex spheroid model of solid tumors. . Complex spheroids include a stromal component modeled by human endothelial cells (HUVEC) and fibroblasts modeled by human mesenchymal stem cells (MSCs). The concentration ranges selected for each drug and investigational agent were based upon clinically achievable concentrations if the clinical Cmax of the agent was known.
Compounds. The drugs and investigational agents: novobiocin (NSC847541), ART-558 (NSC835418), RP-6685 (NSC848927), peposertib (NSC802822), ceralasertib (NSC780249), elimusertib (NSC800525), camonsertib (NSC841442), AZD-1390 (NSC803789), olaparib (NSC753686), talazoparib (NSC767125), rucaparib (NSC756644), sotorasib (NSC818433), MRTX-1133 (NSC836407), SN-38 (NSC673596), topotecan (NSC609699), epotoside (NSC141540), doxorubicin (NSC123127), gemcitabine (NSC613327), 5-fluorouracil (NSC19893), paclitaxel (NSC125973), vemurafenib (NSC761431), MSA-2 (NSC828583), SN-011 (NSC837082), adavosertib (NSC754352), prexasertib (NSC758257), carboplatin (NSC241240) and oxaliplatin (NSC266046), were obtained from the National Cancer Institute (NCI) Developmental Therapeutics Program Chemical Repository (21). The FDA-approved anticancer drug set is available from the Developmental Therapeutics Program at https://dtp.cancer.gov/organization/dscb/obtaining/. […] The stock solutions were prepared in dimethyl sulfoxide (DMSO, Sigma-Aldrich, St. Louis, MO, cat. D2650), except for the platinum compounds which were prepared in saline (Quality Biological, Gaithersburg, MD, cat. 114-055-101), at 800-fold the tested concentration and stored at -70 degrees C prior to their use. All drugs and investigational agents were tested over a range starting from a high concentration at or near the clinical Cmax and decreasing in half-log increments. If the clinical Cmax for an agent had not been determined, the highest concentration tested was 10 microM, except for SN-38, which was tested at a high concentration of 1 microM.
Cell Culture. All cells were maintained in an incubator at 37 degrees C and 5% CO2 with 95% humidity. The PDC lines were cultured according to standard operating procedures established by the NCI PDMR (https://pdmr.cancer.gov). Table 3 of the manuscript, lists the cell lines along with the number of the three cell types plated to form the mct-spheroids and media for tumor cell growth. After thawing, all PDC lines, except 997537-175-T-J1-PDC and 415267-285-R-J2-PDC, were cultured in Matrigel-coated flasks prepared with a working solution of 1X Ham's F-12 nutrient mix, without supplementation (Thermo Fisher Scientific, cat. 11765054), 100 U/mL penicillin-streptomycin (Thermo Fisher Scientific, cat. 15140122), and 2.5% Matrigel (Corning Inc., Corning, NY, cat. 354248) for the first three passages. The two PDC lines 997537-175-T-J1-PDC and 415267-285-R-J2-PDC were cultured on uncoated flasks. The 857933-349-R-J2-PDC line was cultured in 6C/Colon 1B media containing advanced DMEM/F-12 (Thermo Fisher Scientific, cat. 12634028), 10 mM HEPES (Thermo Fisher Scientific, cat. 15630080), 1X GlutaMAX supplement (Thermo Fisher Scientific, cat. 35050061), 0.1 mg/mL primocin (InvivoGen, San Diego, CA, cat. ant-pm-2), 10% defined fetal bovine serum, heat inactivated (HyClone Laboratories Inc., Logan, UT, cat. SH30070.03HI), 50% L-WRN conditioned media (ATCC, cat. CRL-3276), 1.25 mM N-Acetyl-L-cysteine (Sigma-Aldrich, cat. A9165), 10 mM nicotinamide (Sigma-Aldrich, cat. N0636), 1X B-27 supplement (Thermo Fisher Scientific, cat. 17504044), 1X N-2 supplement (Thermo Fisher Scientific, cat. […]
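Note: spheroids exposed to drugs for seven days before reading.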
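Throughout, for viability, T/C: 100% = DMSO vehicle control viability in luminescence.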

`O=c1[nH]cc(F)c(=O)[nH]1` + Nc1ccc(C#CCN(C(=O)Cc2ncc(C(F)(F)F)cc2C(F)(F)F)c2ccc(F)cc2)nn1 was tested, and the IC50 (second compound 0.0316 µM) was over 10 µM, the IC50 (second compound 0.1 µM) was over 10 µM and the IC50 (second compound 0.316 µM) was over 10 µM. For the same compound, the IC50 (second compound 1 µM) was over 10 µM, the IC50 (second compound 3.16 µM) was over 10 µM and the IC50 (second compound 10 µM) was over 10 µM. For the same compound, the viability, T/C (second compound 0.0316 µM, first compound 0.0316 µM) was 99.2%, the viability, T/C (second compound 0.0316 µM, first compound 0.1 µM) was 98.4% and the viability, T/C (second compound 0.0316 µM, first compound 0.316 µM) was 92.5%. It also gave a viability, T/C (second compound 0.0316 µM, first compound 1 µM) of 90.4%, a viability, T/C (second compound 0.0316 µM, first compound 3.16 µM) of 96.4% and a viability, T/C (second compound 0.0316 µM, first compound 10 µM) of 90.3%. The viability, T/C (second compound 0.1 µM, first compound 0.0316 µM) was 104%, the viability, T/C (second compound 0.1 µM, first compound 0.1 µM) was 101% and the viability, T/C (second compound 0.1 µM, first compound 0.316 µM) was 95%. It also gave a viability, T/C (second compound 0.1 µM, first compound 1 µM) of 95.9%, a viability, T/C (second compound 0.1 µM, first compound 3.16 µM) of 91.2% and a viability, T/C (second compound 0.1 µM, first compound 10 µM) of 85.6%. The viability, T/C (second compound 0.316 µM, first compound 0.0316 µM) was 104%, the viability, T/C (second compound 0.316 µM, first compound 0.1 µM) was 93.5% and the viability, T/C (second compound 0.316 µM, first compound 0.316 µM) was 96.4%. The viability, T/C (second compound 0.316 µM, first compound 1 µM) was 85.3%, the viability, T/C (second compound 0.316 µM, first compound 3.16 µM) was 88.2% and the viability, T/C (second compound 0.316 µM, first compound 10 µM) was 96.4%. For the same compound, the viability, T/C (second compound 1 µM, first compound 0.0316 µM) was 104%, the viability, T/C (second compound 1 µM, first compound 0.1 µM) was 98.1% and the viability, T/C (second compound 1 µM, first compound 0.316 µM) was 98.5%. The viability, T/C (second compound 1 µM, first compound 1 µM) was 92.2%, the viability, T/C (second compound 1 µM, first compound 3.16 µM) was 96% and the viability, T/C (second compound 1 µM, first compound 10 µM) was 89.2%. It also gave a viability, T/C (second compound 3.16 µM, first compound 0.0316 µM) of 102%, a viability, T/C (second compound 3.16 µM, first compound 0.1 µM) of 98.9% and a viability, T/C (second compound 3.16 µM, first compound 0.316 µM) of 92.8%. For the same compound, the viability, T/C (second compound 3.16 µM, first compound 1 µM) was 96.6%, the viability, T/C (second compound 3.16 µM, first compound 3.16 µM) was 95.8% and the viability, T/C (second compound 3.16 µM, first compound 10 µM) was 90.1%. For the same compound, the viability, T/C (second compound 10 µM, first compound 0.0316 µM) was 116%, the viability, T/C (second compound 10 µM, first compound 0.1 µM) was 95.1% and the viability, T/C (second compound 10 µM, first compound 0.316 µM) was 91.1%. For the same compound, the viability, T/C (second compound 10 µM, first compound 1 µM) was 85.9%, the viability, T/C (second compound 10 µM, first compound 3.16 µM) was 93.5% and the viability, T/C (second compound 10 µM, first compound 10 µM) was 90.5%.
